# Like-named read-outs stand apart in the source and are kept apart here.
# Experiments:
# [1] = target: rat 5-HT2B receptor (Rattus norvegicus, UniProt P30994); assay: biochemical; assay type: binding;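 also: displacement of [3H]5-HT from membranes of suspension cells carrying cloned rat 5-HT2B receptor, incubated 15 min at 37 °C or 2 h at 0 °C, filter-bound radioactivity counted by scintillation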
# [2] = target: Human 5-HT2A (Homo sapiens, UniProt P28223); assay: [125I]DOI radioligand binding, human 5-HT2A
# [3] = target: Rat 5-HT2A (Rattus norvegicus, UniProt P14842); assay: [125I]DOI radioligand binding, rat 5-HT2A; details: AVG
# [4] = target: T1, Human 5-HT2B (Homo sapiens, UniProt P41595); assay: [3H]Serotonin radioligand binding, human 5-HT2B;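 also: competition of tritiated serotonin binding to cell membranes, bound radioactivity on filters counted by liquid scintillation, IC50 from logistic fits converted to Ki with the Cheng-Prusoff equation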
# T1 construct: expressed in transfected cells
# [5] = Ki Rat 5-HT2B, [3H]Serotonin; 5-HT2B cells; AVG
# [6] = [125I]DOI, AVG, read-out: Ki Human 5-HT2A
# [7] = [3H]Serotonin, 5-HT2B cells, AVG, read-out: Ki Human 5-HT2B
# [8] = [3H]Serotonin; 5-HT2B cells; AVG; read-out: Ki Rat 5-HT2B
# Chain of rat 5-HT2B receptor (P30994 whole entry): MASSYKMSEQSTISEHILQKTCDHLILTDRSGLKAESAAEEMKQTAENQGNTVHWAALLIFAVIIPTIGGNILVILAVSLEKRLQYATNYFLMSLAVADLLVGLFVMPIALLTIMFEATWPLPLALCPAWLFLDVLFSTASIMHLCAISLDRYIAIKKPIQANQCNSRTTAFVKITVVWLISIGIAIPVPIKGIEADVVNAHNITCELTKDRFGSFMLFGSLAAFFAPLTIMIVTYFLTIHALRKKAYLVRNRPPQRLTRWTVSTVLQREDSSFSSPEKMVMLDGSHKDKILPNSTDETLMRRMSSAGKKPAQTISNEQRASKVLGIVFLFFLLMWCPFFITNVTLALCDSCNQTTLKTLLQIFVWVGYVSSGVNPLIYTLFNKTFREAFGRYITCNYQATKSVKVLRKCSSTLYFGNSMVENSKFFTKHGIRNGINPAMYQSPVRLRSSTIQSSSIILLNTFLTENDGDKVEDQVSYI
# Chain of Rat 5-HT2A (P14842 whole entry): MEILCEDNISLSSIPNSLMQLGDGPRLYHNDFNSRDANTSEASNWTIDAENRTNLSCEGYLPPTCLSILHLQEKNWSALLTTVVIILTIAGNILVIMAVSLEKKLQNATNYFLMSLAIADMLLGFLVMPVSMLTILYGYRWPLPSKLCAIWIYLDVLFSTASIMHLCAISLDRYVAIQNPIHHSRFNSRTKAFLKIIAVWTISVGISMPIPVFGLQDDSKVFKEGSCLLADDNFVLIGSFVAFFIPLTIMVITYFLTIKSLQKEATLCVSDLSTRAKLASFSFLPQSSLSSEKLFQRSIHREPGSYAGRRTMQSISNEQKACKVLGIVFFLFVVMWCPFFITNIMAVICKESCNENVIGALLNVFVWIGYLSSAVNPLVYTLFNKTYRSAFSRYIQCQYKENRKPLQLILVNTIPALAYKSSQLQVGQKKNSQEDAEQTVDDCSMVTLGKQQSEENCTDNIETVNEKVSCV
# Chain of Human 5-HT2A (P28223 whole entry): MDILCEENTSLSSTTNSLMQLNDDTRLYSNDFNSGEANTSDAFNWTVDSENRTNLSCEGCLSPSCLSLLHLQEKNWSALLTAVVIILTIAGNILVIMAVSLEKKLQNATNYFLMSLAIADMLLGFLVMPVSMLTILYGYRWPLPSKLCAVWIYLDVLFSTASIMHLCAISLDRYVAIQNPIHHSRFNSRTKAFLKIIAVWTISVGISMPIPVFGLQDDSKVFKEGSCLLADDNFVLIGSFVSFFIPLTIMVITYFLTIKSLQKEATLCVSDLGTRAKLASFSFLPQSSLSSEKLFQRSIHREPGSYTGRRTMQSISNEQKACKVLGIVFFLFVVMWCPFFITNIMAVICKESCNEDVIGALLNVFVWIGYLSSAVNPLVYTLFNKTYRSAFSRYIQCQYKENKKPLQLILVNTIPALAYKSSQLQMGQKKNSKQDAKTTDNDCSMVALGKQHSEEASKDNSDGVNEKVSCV
# T1 sequence (P41595 whole entry): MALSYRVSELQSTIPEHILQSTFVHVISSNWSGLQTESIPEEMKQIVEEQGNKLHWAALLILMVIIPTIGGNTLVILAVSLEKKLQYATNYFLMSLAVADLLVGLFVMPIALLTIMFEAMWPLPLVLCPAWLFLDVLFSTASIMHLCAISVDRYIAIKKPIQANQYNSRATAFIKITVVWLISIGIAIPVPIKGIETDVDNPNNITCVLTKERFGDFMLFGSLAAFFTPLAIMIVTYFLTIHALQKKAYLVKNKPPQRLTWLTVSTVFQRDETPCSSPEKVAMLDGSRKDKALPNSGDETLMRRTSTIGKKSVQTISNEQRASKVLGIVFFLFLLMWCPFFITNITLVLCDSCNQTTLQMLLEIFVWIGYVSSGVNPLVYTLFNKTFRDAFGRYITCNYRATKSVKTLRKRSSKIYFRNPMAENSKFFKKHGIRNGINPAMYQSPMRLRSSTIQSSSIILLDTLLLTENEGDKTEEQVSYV
structure (smiles),measurement,setting,value
CC(C)n1cc2c3c(cccc31)C1CC(C(=O)NC3CCCCC3O)CN(C)C1C2 (stereo not drawn) [drawing 86],Ki,[1]; [5],8.61 nM
same,Ki,[2]; [6],15.8 nM
same,Ki,[3],2.39 nM
Cc1cc(Br)c2[nH]c3c(c2c1)CCNC3 [drawing 168],Ki,[2],41.7 nM
same,Ki,[3],47 nM
CC(C)n1cc2c3c(cccc31)C1CC(C(=O)NC3CCCCC3)CN(C)C1C2 (stereo not drawn),Ki,[1]; [5],15.1 nM
same,Ki,[3],2.05 nM
CC(C)n1cc2c3c(cccc31)C1CC(C(=O)N[C@H]3CC[C@@H](O)CC3)CN(C)C1C2 (stereo partly drawn),Ki,[1]; [5],22.3 nM
same,Ki,[4],4.3 nM
same,Ki,[2]; [6],11.3 nM
same,Ki,[3],1.57 nM
CC(C)n1cc2c3c(cccc31)C1CC(C(=O)NC3CCCCC3O)CN(C)C1C2 (stereo not drawn) [drawing 87],Ki,[1]; [5],9.35 nM
same,Ki,[2]; [6],18.6 nM
same,Ki,[3],2.44 nM
CN1CC(C(=O)N[C@H]2CC[C@H](O)CC2)CC2c3cccc4[nH]cc(c34)CC21 (stereo partly drawn),Ki,[1]; [5],44.6 nM
same,Ki,[4],12.4 nM
same,Ki,[2]; [6],1.25 nM
same,Ki,[3],5.36 nM
"CCCN(CCC)C1CCc2cccc(-c3ccno3)c2C1 (single isomer, unassigned)",Ki,[1]; read-out: Ki Rat 5-HT2B; [3H]Serotonin; 5-HT2B cells; AVG,79.3 nM
same,Ki,[4]; [7],215 nM
same,Ki,"[2]; read-out: Ki Human 5-HT2A, [125I]DOI, AVG",6160 nM
Cc1ccc2[nH]c3c(c2c1)CCNC3Cc1cccc2ccccc12 (stereo not drawn),Ki,[1]; [8],3.31 nM
same,Ki,[4]; [7],0.74 nM
same,Ki,[2],4.63 nM
Brc1cccc2c3c([nH]c12)CNCC3,Ki,[2],22.7 nM
same,Ki,[3],25.6 nM
Cc1ccc2c(CCN)c[nH]c2c1Cl,Ki,[1]; [5],7.94 nM
same,Ki,[4],11.2 nM
same,Ki,[2]; [6],27.6 nM
same,Ki,[3],20.7 nM
CC(C)n1cc2c3c(cccc31)C1CC(C(=O)NC3CCCCC3O)CN(C)C1C2 (stereo not drawn) [drawing 84],Ki,[1]; [5],10.2 nM
same,Ki,[2]; [6],74.5 nM
same,Ki,[3],8.91 nM
Cc1ccc2c3c([nH]c2c1Br)CNCC3,Ki,[2],21.7 nM
same,Ki,[3],15.7 nM
CC(C)n1cc2c3c(cccc31)C1CC(C(=O)N[C@H]3CC[C@H](O)CC3)CN(C)C1C2 (stereo partly drawn),Ki,[1]; [5],30.9 nM
same,Ki,[4],6.24 nM
same,Ki,[2]; [6],21.2 nM
same,Ki,[3],2.82 nM
CC(C)n1cc2c3c(cccc31)C1CC(C(=O)NC3CCCCC3O)CN(C)C1C2 (stereo not drawn) [drawing 85],Ki,[1]; [5],11.4 nM
same,Ki,[2]; [6],108 nM
same,Ki,[3],12.4 nM
Cc1ccc2[nH]c3c(c2c1)CCNC3C(C)c1cccc2ccccc12 (stereo not drawn),Ki,[1]; [8],3.94 nM
same,Ki,[4]; [7],1.29 nM
same,Ki,[2],5.62 nM
CCc1ccc2[nH]c3c(c2c1)CCNC3Cc1ccc(OC)c(OC)c1 (stereo not drawn) [drawing 143],Ki,[1]; [8],8.16 nM
same,Ki,[4]; [7],1.5 nM
same,Ki,[2],23.4 nM
Cc1ccc2c(CCN)c[nH]c2c1Br,Ki,[1]; [5],11.3 nM
same,Ki,[2]; [6],33.7 nM
same,Ki,[3],14.2 nM
CN1CC(C(=O)NC2CCCCC2)CC2c3cccc4[nH]cc(c34)CC21 (stereo not drawn),Ki,[1]; [5],19 nM
same,Ki,[3],5.12 nM
Cc1ccc2c3c([nH]c2c1I)CNCC3,Ki,[1]; [8],15.3 nM
same,Ki,[4]; [7],10.2 nM
same,Ki,[2],17.8 nM
Cc1ccc2c3c([nH]c2c1Cl)CNCC3 [drawing 177],Ki,[1]; [8],2.69 nM
same,Ki,[4]; [7],2.68 nM
same,Ki,[2],20.6 nM
same,Ki,[3],15.5 nM
